These results are taken from patent US6620828B2, “Thiazole compounds and pharmaceutical compositions for inhibiting protein kinases and methods for their use” (Agouron Pharmaceuticals, Inc., priority 1999, dated 2003).

Like-named read-outs stand apart in the source and are kept apart here.

In this experiment the test system is human umbilical vein endothelial cells (HUVEC). The experiment is described as follows: HUVEC proliferation assay. It counts as cell-based. To be noted: Homo sapiens, HUVEC; for inhibition at 0.001 µM: 1 nM; for inhibition at 0.01 µM: 10 nM, read-out: % inhibition @ 10 nM. In short, it runs like this:
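Exponentially growing HUVEC were serum-starved 24 h (F12K + 1% FBS), pre-treated 1 h with compound (0.1% DMSO final), then stimulated with 6 ng/ml VEGF. Proliferation was read 72 h later by MTT reduction (A595). IC50 came from seven 0.5-log concentrations in triplicate; screens gave % inhibition relative to VEGF-only and starved wells.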

The mark [1] stands for this setting: Table II screening results, crude combinatorial amide library.
Setting [2] is: table following Table II (untitled), crude combinatorial library.

Turning to `CNC(=O)Nc1nc(N)c(-c2nc(-c3cccc(NC(=O)c4ccccc4)c3)cs2)s1`, under setting [1], the inhibition at 0.001 µM is -8% and the inhibition at 0.01 µM was -40%.

For `CNC(=O)Nc1nc(N)c(-c2nc(-c3cccc(NC(=O)c4cc(=O)[nH]c(=O)[nH]4)c3)cs2)s1`, under setting [1], the inhibition at 0.001 µM was -5% and the inhibition at 0.01 µM is -14%.

As for `CNC(=O)Nc1nc(N)c(-c2nc(-c3cccc(NC(=O)C4CCCO4)c3)cs2)s1` (centres unmarked), under setting [1], the inhibition at 0.001 µM was found to be 183% and the inhibition at 0.01 µM was -33%.

As for `CNC(=O)Nc1nc(N)c(-c2nc(-c3cccc(NC(=O)C(C)C)c3)cs2)s1`, under setting [1], the inhibition at 0.001 µM turned out to be 10% and the inhibition at 0.01 µM is -45%.

Turning to `CNC(=O)Nc1nc(N)c(-c2nc(-c3cccc(NC(=O)C(O)CC(C)C)c3)cs2)s1` (centres unmarked), under setting [1], the inhibition at 0.001 µM was -18% and the inhibition at 0.01 µM turned out to be 2%.

As for `CNC(=O)Nc1nc(N)c(-c2nc(-c3cccc(NC(=O)c4ccc(=O)oc4)c3)cs2)s1`, under setting [1], the inhibition at 0.001 µM was -4% and the inhibition at 0.01 µM is 30%.

With `CNC(=O)Nc1nc(N)c(-c2nc(-c3cccc(NC(=O)c4cccc5[nH]ccc45)c3)cs2)s1`, under setting [1], the inhibition at 0.001 µM was -3% and the inhibition at 0.01 µM stood at 2%.

In the case of `CNC(=O)Nc1nc(N)c(-c2nc(-c3cccc(NC(=O)CCCN(C)C)c3)cs2)s1`, under setting [1], the inhibition at 0.001 µM is -12% and the inhibition at 0.01 µM is -40%.

With `C=CCC(=O)Nc1cccc(-c2csc(-c3sc(NC(=O)NC)nc3N)n2)c1`, under setting [1], the inhibition at 0.001 µM turned out to be 8% and the inhibition at 0.01 µM is -13%.

For `CNC(=O)Nc1nc(N)c(-c2nc(-c3cccc(NC(=O)C4CCN(C(C)=O)CC4)c3)cs2)s1`, under setting [1], the inhibition at 0.001 µM turned out to be 23% and the inhibition at 0.01 µM was -15%.

As to `CNC(=O)Nc1nc(N)c(-c2nc(-c3cccc(NC(=O)C4CCOC4)c3)cs2)s1` (centres unmarked), under setting [1], the inhibition at 0.001 µM is -5% and the inhibition at 0.01 µM was -8%.

Consider `CNC(=O)Nc1nc(N)c(-c2nc(-c3cccc(NC(=O)/C=C/c4cccc(OC)c4)c3)cs2)s1`, for which, under setting [1], the inhibition at 0.001 µM is -1% and the inhibition at 0.01 µM is -12%.

Take `CNC(=O)Nc1nc(N)c(-c2nc(-c3cccc(NC(=O)C(O)c4ccccc4)c3)cs2)s1` (centres unmarked): under setting [1], the inhibition at 0.001 µM is -14% and the inhibition at 0.01 µM was -11%.

Regarding `CNC(=O)Nc1nc(N)c(-c2nc(-c3cccc(NC(=O)C(=O)Cc4ccccc4)c3)cs2)s1`, under setting [1], the inhibition at 0.001 µM stood at 8% and the inhibition at 0.01 µM amounted to 25%.

Take `CNC(=O)Nc1nc(N)c(-c2nc(-c3cccc(NC(=O)C4C(C=C(C)C)C4(C)C)c3)cs2)s1` (centres unmarked): under setting [1], the inhibition at 0.001 µM was -17% and the inhibition at 0.01 µM came out at 12%.

Take `CNC(=O)Nc1nc(N)c(-c2nc(-c3cccc(NC(=O)[C@@]45C[C@@H]6C[C@@H]4CC6(C)C5)c3)cs2)s1`: under setting [1], the inhibition at 0.001 µM was -20% and the inhibition at 0.01 µM is 2%.

Regarding `CNC(=O)Nc1nc(N)c(-c2nc(-c3cccc(NC(=O)Cc4cccnc4)c3)cs2)s1`, under setting [1], the inhibition at 0.001 µM was -7% and the inhibition at 0.01 µM was -27%.

`CNC(=O)Nc1nc(N)c(-c2nc(-c3cccc(NC(=O)Cc4cc(F)ccc4F)c3)cs2)s1`: under setting [1], the inhibition at 0.001 µM was -1% and the inhibition at 0.01 µM was 4%.

Consider `CNC(=O)Nc1nc(N)c(-c2nc(-c3cccc(NC(=O)Cc4cc(F)cc(F)c4)c3)cs2)s1`, for which, under setting [1], the inhibition at 0.001 µM was -5% and the inhibition at 0.01 µM is -10%.

As for `CNC(=O)Nc1nc(N)c(-c2nc(-c3cccc(NC(=O)Cc4cccc(OC)c4)c3)cs2)s1`, under setting [1], the inhibition at 0.001 µM was 25% and the inhibition at 0.01 µM is -31%.

Consider `CNC(=O)Nc1nc(N)c(-c2nc(-c3cccc(NC(=O)C4C[C@H]5C=C[C@@H]4C5)c3)cs2)s1` (some centres unmarked), for which, under setting [1], the inhibition at 0.001 µM is 4% and the inhibition at 0.01 µM was -18%.

Regarding `CNC(=O)Nc1nc(N)c(-c2nc(-c3cccc(NC(=O)CCc4ccc(C)cc4)c3)cs2)s1`, under setting [1], the inhibition at 0.001 µM was found to be 2%.

On to `CNC(=O)Nc1nc(N)c(-c2nc(-c3cccc(NC(=O)c4cc(C)on4)c3)cs2)s1`, for which, under setting [1], the inhibition at 0.001 µM worked out at 14% and the inhibition at 0.01 µM was determined as 10%.

Turning to `CNC(=O)Nc1nc(N)c(-c2nc(-c3cccc(NC(=O)C(=O)CC(C)C)c3)cs2)s1`, under setting [1], the inhibition at 0.001 µM is 3% and the inhibition at 0.01 µM amounted to 11%.

For the compound `CNC(=O)Nc1nc(N)c(-c2nc(-c3cccc(NC(=O)C4CCCC(OC)C4)c3)cs2)s1` (centres unmarked), under setting [1], the inhibition at 0.001 µM was 6% and the inhibition at 0.01 µM came to 5%.

Take `CNC(=O)Nc1nc(N)c(-c2nc(-c3cccc(NC(=O)C4(c5ccc(C)cc5)CC4)c3)cs2)s1`: under setting [1], the inhibition at 0.001 µM was -8% and the inhibition at 0.01 µM was -6%.

On to `CNC(=O)Nc1nc(N)c(-c2nc(-c3cccc(NC(=O)Cc4sc(S)nc4C)c3)cs2)s1`, for which, under setting [1], the inhibition at 0.001 µM was found to be 18% and the inhibition at 0.01 µM was -25%.

Take `CNC(=O)Nc1nc(N)c(-c2nc(-c3cccc(NC(=O)c4cc(C)n(O)n4)c3)cs2)s1`: under setting [1], the inhibition at 0.001 µM is -2% and the inhibition at 0.01 µM came to 13%.

For the compound `CNC(=O)Nc1nc(N)c(-c2nc(-c3cccc(NC(=O)C4CC(=O)OC4(C)C)c3)cs2)s1` (centres unmarked), under setting [1], the inhibition at 0.001 µM is 2% and the inhibition at 0.01 µM was -10%.

As for `CNC(=O)Nc1nc(N)c(-c2nc(-c3cccc(NC(=O)c4cc(C)n[nH]4)c3)cs2)s1`, under setting [1], the inhibition at 0.001 µM stood at 32% and the inhibition at 0.01 µM was -22%.

With `CNC(=O)Nc1nc(N)c(-c2nc(-c3cccc(NC(=O)c4cc(C)nn4C)c3)cs2)s1`, under setting [1], the inhibition at 0.001 µM is 10% and the inhibition at 0.01 µM came out at 39%.

Take `CNC(=O)Nc1nc(N)c(-c2nc(-c3cccc(NC(=O)c4cc(C)[nH]c4C)c3)cs2)s1`: under setting [1], the inhibition at 0.001 µM is 25% and the inhibition at 0.01 µM is -13%.

In the case of `CNC(=O)Nc1nc(N)c(-c2nc(-c3cccc(NC(=O)c4cccc5cc[nH]c45)c3)cs2)s1`, under setting [1], the inhibition at 0.001 µM was -11% and the inhibition at 0.01 µM was determined as 60%.

For `C/C=C(\C)C(=O)Nc1cccc(-c2csc(-c3sc(NC(=O)NC)nc3N)n2)c1`, under setting [1], the inhibition at 0.001 µM came out at 5% and the inhibition at 0.01 µM stood at 17%.

On to `CNC(=O)Nc1nc(N)c(-c2nc(-c3cccc(NC(=O)c4cc(=O)cco4)c3)cs2)s1`, for which, under setting [1], the inhibition at 0.001 µM was 47% and the inhibition at 0.01 µM was determined as 27%.

On to `CCCN(CCC)CC(=O)Nc1cccc(-c2csc(-c3sc(NC(=O)NC)nc3N)n2)c1`, for which, under setting [1], the inhibition at 0.001 µM was 10% and the inhibition at 0.01 µM was found to be 0%.

In the case of `CC/C=C(\C)C(=O)Nc1cccc(-c2csc(-c3sc(NC(=O)NC)nc3N)n2)c1`, under setting [1], the inhibition at 0.001 µM is -12% and the inhibition at 0.01 µM was determined as 67%.

Take `CNC(=O)Nc1nc(N)c(-c2nc(-c3cccc(NC(=O)Cc4c(F)cccc4F)c3)cs2)s1`: under setting [1], the inhibition at 0.001 µM was -3% and the inhibition at 0.01 µM is -2%.

Turning to `CNC(=O)Nc1nc(N)c(-c2nc(-c3cccc(NC(=O)C4C(C)(C)C4(C)C)c3)cs2)s1`, under setting [1], the inhibition at 0.001 µM was 11% and the inhibition at 0.01 µM came out at 21%.

On to `CCNc1ccccc1C(=O)Nc1cccc(-c2csc(-c3sc(NC(=O)NC)nc3N)n2)c1`, for which, under setting [1], the inhibition at 0.001 µM is -1% and the inhibition at 0.01 µM was 29%.

On to `CNC(=O)Nc1nc(N)c(-c2nc(-c3cccc(NC(=O)C4CCSCN4C)c3)cs2)s1` (centres unmarked), for which, under setting [1], the inhibition at 0.001 µM is 1% and the inhibition at 0.01 µM was 62%.

For `CNC(=O)Nc1nc(N)c(-c2nc(-c3cccc(NC(=O)[C@@H]4CCC[C@@H]4O)c3)cs2)s1`, under setting [1], the inhibition at 0.001 µM came to 15% and the inhibition at 0.01 µM came to 13%.

`CNC(=O)Nc1nc(N)c(-c2nc(-c3cccc(NC(=O)C4CCC(=O)CC4)c3)cs2)s1`: under setting [1], the inhibition at 0.001 µM is -2% and the inhibition at 0.01 µM is 12%.

For `CNC(=O)Nc1nc(N)c(-c2nc(-c3cccc(NC(=O)c4ccccc4C(C)C)c3)cs2)s1`, under setting [1], the inhibition at 0.001 µM is -9% and the inhibition at 0.01 µM was 26%.

`CNC(=O)Nc1nc(N)c(-c2nc(-c3cccc(NC(=O)[C@@H](O)C(C)C)c3)cs2)s1`: under setting [1], the inhibition at 0.001 µM turned out to be 16% and the inhibition at 0.01 µM worked out at 4%.

With `CCn1nc(C)cc1C(=O)Nc1cccc(-c2csc(-c3sc(NC(=O)NC)nc3N)n2)c1`, under setting [1], the inhibition at 0.001 µM was found to be 17% and the inhibition at 0.01 µM is 41%.

Regarding `CNC(=O)Nc1nc(N)c(-c2nc(-c3cccc(NC(=O)C4CC(=O)N(C)C4)c3)cs2)s1` (centres unmarked), under setting [1], the inhibition at 0.001 µM stood at 21% and the inhibition at 0.01 µM was -4%.

As for `CNC(=O)Nc1nc(N)c(-c2nc(-c3cccc(NC(=O)/C=C/c4ccccc4OC)c3)cs2)s1`, under setting [1], the inhibition at 0.001 µM was -34% and the inhibition at 0.01 µM amounted to 46%.

For `CNC(=O)Nc1nc(N)c(-c2nc(-c3cccc(NC(=O)C4CC5C=CCC(C5)C4)c3)cs2)s1` (centres unmarked), under setting [1], the inhibition at 0.001 µM stood at 1% and the inhibition at 0.01 µM came to 55%.

`CNC(=O)Nc1nc(N)c(-c2nc(-c3cccc(NC(=O)C4CC5C=CC4CC5)c3)cs2)s1` (centres unmarked): under setting [1], the inhibition at 0.001 µM was found to be 54% and the inhibition at 0.01 µM is 45%.

On to `CNC(=O)Nc1nc(N)c(-c2nc(-c3cccc(NC(=O)C4CC5CC(O)C4C5)c3)cs2)s1` (centres unmarked), for which, under setting [1], the inhibition at 0.001 µM came to 20% and the inhibition at 0.01 µM is 19%.

For `CNC(=O)Nc1nc(N)c(-c2nc(-c3cccc(NC(=O)C4C[C@@H]5C[C@H]4CCC5O)c3)cs2)s1` (some centres unmarked), under setting [1], the inhibition at 0.001 µM worked out at 14% and the inhibition at 0.01 µM is 21%.

As to `COc1cc(Nc2nc(N)c(-c3nc(-c4cc(NC(=O)CCC(=O)N5CCCC5)ccc4C)no3)s2)cc(OC)c1OC`, under setting [2], the inhibition at 0.001 µM is -18% and the inhibition at 0.01 µM is -20%.

Take `CCc1ccccc1C(=O)Nc1ccc(C)c(-c2noc(-c3sc(Nc4cc(OC)c(OC)c(OC)c4)nc3N)n2)c1`: under setting [2], the inhibition at 0.001 µM was -26% and the inhibition at 0.01 µM was determined as 59%.
